Measurements from patent US20230346744A1, “SULFUR-CONTAINING COMPOUND USEFUL FOR TREATING OR PREVENTING PRESBYOPIA” (SANTEN PHARMACEUTICAL CO., LTD., priority 2020, published 2023).

Legend:
Assay type in all cases: in vivo
C57BL/6J mice [1] = experiment: Pharmacological Test-4: once-daily instillation of Compounds 3 and 4 for 2 weeks, lens elasticity; conditions: once per day for 14 days; for Lens elasticity improvement: 2.5 μL/eye, 8-month-old mice, vs vehicle control
Protocol: The effect of once-daily instillation of each of Compounds 3 and 4 for 2 weeks on the lens elasticity was examined.
(§1) A vehicle comprising 1.0% (w/v) of CO35, 0.1% (w/v) of ethyl pyruvate, 0.269% (w/v) of sodium dihydrogenphosphate monohydrate (NaH2 PO4.H2O), 0.433% (w/v) of disodium hydrogenphosphate (Na2HPO4), 0.2% (w/v) of hydroxypropyl methylcellulose, 0.5% (w/v) of NaCl, and purified water (appropriate amount) was prepared.
Compound 3 was stirred with the addition of the vehicle to give a 0.03% (w/v) suspension.
Compound 4 was stirred with the addition of the vehicle to give a 0.1% (w/v) suspension. The resulting 0.1% (w/v) suspension was diluted with the vehicle to give a 0.03% (w/v) suspension. Further, the resulting 0.03% (w/v) suspension was diluted with the vehicle to give a 0.01% (w/v) suspension.
(§2) After preparation, all were refrigerated.
1) Each test sample (2.5 μL/eye) was instilled into both eyes of 8-month-old
C57BL/6J mice with a Pipetman once per day (around 9:00) for 14 days.
(§3) 2) After the final instillation, the mice were euthanized by carbon dioxide inhalation, and then the eyeballs were extracted and rinsed with Hank's balanced salt solution (HBSS).
(§4) 3) The sclera near the optic nerve was cut with a razor, the lens was removed through the incision, and the removed lens was immersed in HBSS.
(§5) 4) The lens was placed on a glass slide, and an all-in-one fluorescence microscope BZ-9000 (Keyence) was used to capture an image of the lens (Image a).
(§6) 5) Next, one cover glass (Corning(registered trade mark) 22×22 mm Square) was placed on the lens, and an image in which the thickness of the lens changed due to the weight was similarly captured (Image b).
(§7) 6) A change in the lens diameter was calculated from Equation 1 wherein the lens diameter of Image a is subtracted from the lens diameter of Image b, as described below. Then, the lens elasticity improvement of each sample group compared with the vehicle control group was calculated from Equation 2 described below. The mean value of each group was based on 10 eyes.
(§8) Change in lens diameter=Lens diameter in Image b of each test sample−Lens diameter in Image a of each test sample Equation 1
(§9) Lens elasticity improvement of each sample group=Mean change in lens diameter of each Test sample group−Mean change in lens diameter of Vehicle control group Equation 2

C57BL/6J mice [2] = experiment: Pharmacological Test-3: once-daily instillation of Compounds 1, 2 and 3 for 2 weeks, lens elasticity; conditions: once per day for 14 days; for Lens elasticity improvement: 2.5 μL/eye, 8-month-old mice, vs vehicle control
Protocol: The effect of once-daily instillation of each of Compounds 1, 2 and 3 for 2 weeks on the lens elasticity was examined.
as §1
Each of Compounds 1 and 2 was stirred with the addition of the vehicle to give a 0.1% (w/v) solution.
To Compound 3 was added the vehicle to give a 0.1% (w/v) suspension. The resulting 0.1% (w/v) suspension was diluted with the vehicle to give a 0.03% (w/v) solution. Further, the resulting 0.03% (w/v) solution was diluted with the vehicle to give a 0.01% (w/v) solution.
After preparation, all were frozen.
1) Each test sample (2.5 μL/eye) was instilled into both eyes of 8-month-old C57BL/6J mice with a Pipetman once per day (around 9:00) for 14 days.
as §3, §4, §5, §6, §7, §8, §9

Japanese White rabbit = experiment: Ocular irritation test-2 (McDonald-Shadduck method); design: key to Irritation Score of anterior segment of the eye: Discharge / Irritation Score of anterior segment of the eye: Anterior chamber flare / Irritation Score of anterior segment of the eye: Light reflex / Irritation Score of anterior segment of the eye: Iris / Irritation Score of anterior segment of the eye: Corneal opacity / Irritation Score of anterior segment of the eye: Corneal angiogenesis / Irritation Score of anterior segment of the eye: Corneal epithelial disorder / Irritation Score of anterior segment of the eye: Conjunctival hyperemia / Irritation Score of anterior segment of the eye: Conjunctival edema: —: No noteworthy findings; conditions: 50 μL/eye, 10 times at 30-minute intervals; for Irritation Score of anterior segment of the eye: Anterior chamber flare / Irritation Score of anterior segment of the eye: Conjunctival edema / Irritation Score of anterior segment of the eye: Corneal angiogenesis / Irritation Score of anterior segment of the eye: Corneal opacity / Irritation Score of anterior segment of the eye: Discharge / Irritation Score of anterior segment of the eye: Iris / Irritation Score of anterior segment of the eye: Light reflex / Irritation Score of anterior segment of the eye: Conjunctival hyperemia: 1 hour after the final instillation; for Irritation Score of anterior segment of the eye: Conjunctival hyperemia: scale +1 slight, +2 moderate, +3 severe; for Irritation Score of anterior segment of the eye: Corneal epithelial disorder: 3 hours after the final instillation
Protocol: A vehicle eye drop and 0.01% (w/v) and 0.1% (w/v) Compound 4 eye drops were prepared in the same manner as Preparation of Test sample in Pharmacological test-4.
The vehicle eye drop, and the 0.01% (w/v) and 0.1% (w/v) Compound 4 eye drops were each instilled into one eye of a Japanese White rabbit at a dose volume of 50 μL/eye with pipette 10 times at 30-minute intervals. One hour after the final instillation, ocular irritation of anterior segment of the eye was evaluated using a slit lamp according to the McDonald-Shadduck method. Observation for corneal epithelial disorder was conducted 3 hours after the final instillation.
The ocular irritation of anterior segment of the eye was scored according to the following criteria: • +1: slight; +2: moderate; +3: severe

C57BL/6J mice [3] = experiment: Pharmacological Test-5: once-daily instillation of Compounds 5, 6 and 7 for 2 weeks, lens elasticity; conditions: once per day for 14 days; for Lens elasticity improvement: 2.5 μL/eye, 8-month-old mice, vs vehicle control
Protocol: The effect of once-daily instillation of each of Compounds 5, 6, and 7 for 2 weeks on the lens elasticity was examined.
as §1
Compound 5 was stirred with the addition of the vehicle to give a 0.1% (w/v) suspension. The resulting 0.1% (w/v) suspension was diluted with the vehicle to give a 0.03% (w/v) suspension.
Compound 6 was stirred with the addition of the vehicle to give a 0.1% (w/v) suspension. The resulting 0.1% (w/v) a suspension was diluted with the vehicle to give a 0.03% (w/v) suspension.
Compound 7 was stirred with the addition of the vehicle to give a 0.1% (w/v) suspension.
as §2
EVO6 was stirred with the addition of the vehicle to give a 0.03% (w/v) solution, which was for comparison in the test for Compounds 5, 6 and 7. After preparation, it was refrigerated.
1) Each test sample (2.5 μL/eye) was instilled into both eyes of 8-month-old C57BL/6J mice with a Pipetman once per day (around 13:30) for 14 days.
as §3, §4, §5, §6
as §7, with “8” for “10”
as §8, §9

[4] = all of the concentrations of 0.01%, 0.03% and 0.1%
[5] = concentrations of 0.03% and 0.1%

OCCCCCC1CCSS1 (centres unmarked) [Compound 3, 5-(1,2-Dithiolan-3-yl)pentan-1-ol]
Lens elasticity improvement (C57BL/6J mice [1]; 0.03% sample): 39.9 μm | Lens elasticity improvement (C57BL/6J mice [2]; 0.01% sample): 21.5 μm | Lens elasticity improvement (C57BL/6J mice [2]; 0.03% sample): 47.3 μm | Lens elasticity improvement (C57BL/6J mice [2]; 0.1% sample): 60.1 μm | Lens elasticity effect (in words) (C57BL/6J mice [2]; [4]): showed an elasticity improving effect

OCCCCC[C@@H]1CCSS1 [Compound 4]
Lens elasticity improvement (C57BL/6J mice [1]; 0.01% sample): 31.1 μm | Lens elasticity improvement (C57BL/6J mice [1]; 0.03% sample): 60.2 μm | Lens elasticity improvement (C57BL/6J mice [1]; 0.1% sample): 66.7 μm | Lens elasticity effect (in words) (C57BL/6J mice [1]; [4]): showed an elasticity improving effect | Irritation in anterior segment of the eye (in words) (Japanese White rabbit; 0.01% (w/v) and 0.1% (w/v) eye drops): No irritation was observed | Irritation Score of anterior segment of the eye: Anterior chamber flare (Japanese White rabbit; 0.01% eye drop): — | Irritation Score of anterior segment of the eye: Conjunctival edema (Japanese White rabbit; 0.01% eye drop): — | Irritation Score of anterior segment of the eye: Corneal angiogenesis (Japanese White rabbit; 0.01% eye drop): — | Irritation Score of anterior segment of the eye: Corneal opacity (Japanese White rabbit; 0.01% eye drop): — | Irritation Score of anterior segment of the eye: Discharge (Japanese White rabbit; 0.01% eye drop): — | Irritation Score of anterior segment of the eye: Iris (Japanese White rabbit; 0.01% eye drop): — | Irritation Score of anterior segment of the eye: Light reflex (Japanese White rabbit; 0.01% eye drop): — | Irritation Score of anterior segment of the eye: Conjunctival hyperemia (Japanese White rabbit; 0.01% eye drop): — | Irritation Score of anterior segment of the eye: Corneal epithelial disorder (Japanese White rabbit; 0.01% eye drop): — | Irritation Score of anterior segment of the eye: Anterior chamber flare (Japanese White rabbit; 0.1% eye drop): — | Irritation Score of anterior segment of the eye: Conjunctival edema (Japanese White rabbit; 0.1% eye drop): — | Irritation Score of anterior segment of the eye: Corneal angiogenesis (Japanese White rabbit; 0.1% eye drop): — | Irritation Score of anterior segment of the eye: Corneal opacity (Japanese White rabbit; 0.1% eye drop): — | Irritation Score of anterior segment of the eye: Discharge (Japanese White rabbit; 0.1% eye drop): — | Irritation Score of anterior segment of the eye: Iris (Japanese White rabbit; 0.1% eye drop): — | Irritation Score of anterior segment of the eye: Light reflex (Japanese White rabbit; 0.1% eye drop): — | Irritation Score of anterior segment of the eye: Conjunctival hyperemia (Japanese White rabbit; 0.1% eye drop): — | Irritation Score of anterior segment of the eye: Corneal epithelial disorder (Japanese White rabbit; 0.1% eye drop): —

OCCCCC1CCSS1 (centres unmarked) [Compound 6, 4-(1,2-Dithiolan-3-yl)butan-1-ol]
Lens elasticity improvement (C57BL/6J mice [3]; 0.03% sample): 40.0 μm | Lens elasticity improvement (C57BL/6J mice [3]; 0.1% sample): 58.9 μm | Lens elasticity effect (in words) (C57BL/6J mice [3]; [5]): potent elasticity improving effect

OCCCCCC(S)CCS (centres unmarked) [Compound 2, 6,8-Dimercaptooctan-1-ol]
Lens elasticity effect (in words) (C57BL/6J mice [2]; 0.03% sample group): potent elasticity improving effect | Lens elasticity improvement (C57BL/6J mice [2]; 0.03% sample): 42.2 μm

OCCCCCCC1CCSS1 (centres unmarked) [Compound 5, 6-(1,2-Dithiolan-3-yl)hexan-1-ol]
Lens elasticity improvement (C57BL/6J mice [3]; 0.03% sample): 22.3 μm | Lens elasticity improvement (C57BL/6J mice [3]; 0.1% sample): 26.6 μm | Lens elasticity effect (in words) (C57BL/6J mice [3]; [5]): potent elasticity improving effect

OCCOCCC1CCSS1 (centres unmarked) [Compound 7, 2-[2-(1,2-Dithiolan-3-yl)ethoxy]ethan-1-ol]
Lens elasticity effect (in words) (C57BL/6J mice [3]; 0.1% sample group): potent elasticity improving effect | Lens elasticity improvement (C57BL/6J mice [3]; 0.1% sample): 41.4 μm
